Data as given in US20260021119A1, “TETRACYCLINE DERIVATIVES” (ICM (INSTITUT DU CERVEAU ET DE LA MOELLE ÉPINIÈRE), priority 2022, published 2026).
Converted amounts (≈) assume the structure as drawn.

Tests used:
E. coli ATCC 28922 = experiment: MIC, standardized protocols (Example 9); format: cell-based; conditions: Escherichia coli, ATCC28922
Description: (§1) Bacterial strains used in this study were: S. aureus (ATCC25923), E. coli (ATCC28922), E. faecalis (ATCC29212) and P. aeruginosa (PA01). The minimum inhibitory concentrations (MICs) were estimated using standardized protocols (Mawabo et al, J. Infect. Public Health 2015).

E. faecalis ATCC 29212 = experiment: MIC, standardized protocols (Example 9); format: cell-based; conditions: Enterococcus faecalis, ATCC29212
Description: as §1

P. aeruginosa PA01 = experiment: MIC, standardized protocols (Example 9); format: cell-based; conditions: Pseudomonas aeruginosa
Description: as §1

S. aureus ATCC 25923 = experiment: MIC, standardized protocols (Example 9); format: cell-based; conditions: Staphylococcus aureus, ATCC25923
Description: as §1

4 test bacterial strains = experiment: Antimicrobial effects, summary over the 4 test bacterial strains (Example 9); format: cell-based
Description: as §1

dopamine neurons = experiment: Neuroprotection in midbrain mouse cultures, survival of TH+ dopamine neurons; format: cell-based; conditions: 0.5 μM, 1 μM and 5 μM, div14
Method: (§2) Midbrain mouse cultures were subjected to a maturation step until day in vitro (div) 7, and then gradually exposed to phenol red formulated DMEM/Nutrient mixture F12 Ham supplemented with 20 μg/mL of insulin and 2 μM of the NMDA receptor blocker MK-801. Under these conditions, which favor low-level, sustained oxidative insults, and lead ultimately to dopamine cell death, treatments with the compound of formula (Ib) according to the invention (at a concentration ranging from 0.1 to 5 μM) were performed or not, as well as treatments with the reference tetracycline antibiotic doxycycline (DOX; 10 μM) and the glycoprotein apotransferrin (APO; 100 μg/mL), the latter being used as reference neuroprotectant. At div14, cultures were fixed, and then processed for tyrosine hydroxylase (TH) immunocytochemistry to estimate the survival of dopamine neurons.
as §2, with “(Ic)” for “(Ib)”, “with” for “with the reference tetracycline antibiotic doxycycline (DOX; 10 μM) and”

[1] = tested on: primary mouse microglial cells (TNF-a release, LPS 10 ng/ml); experiment: Anti-inflammatory effect in LPS-activated primary mouse microglial cells, TNF-a ELISA; format: cell-based
Method: Primary mouse microglial cells cultivated in Dulbecco's Modified Eagle Medium (DMEM) with no serum and 15 mM Hepes were challenged with lipopolysaccharide (LPS, 10 ng/ml) for 24 hours in the presence or not of the compound of formula (Ib) according to the present invention at concentrations of 1 μM, 5 μM, 25 μM and 50 μM. After that, the release of the proinflammatory cytokine TNF-a was estimated with an ELISA kit (ThermoFisher Scientific).

[2] = tested on: p-tau (phosphorylated tau protein at Ser202, Thr205 residues); experiment: p-tau (AT8) expression in cultured cortical neurons under oxidative stress; format: cell-based, mouse; set-up: key to Reduction of the % of p-tau+ somas: a favorable response, synonymous with a decrease in the number of p-tau+ cell bodies; ++: a favorable response, synonymous with a decrease in the number of p-tau+ cell bodies; +++=reference level; an unfavorable response is represented by a sign “−”, synonymous with an elevation of the number of p-tau+ cell bodies; overexpression of p-tau in cortical cell bodies: dose or concentration left out as unconfirmed
Method: A culture model of cortical neurons from mouse embryonic brain was used, in which neuronal cells were subjected to a maturation step until day in vitro (div) 7, before being gradually exposed to phenol red formulated DMEM/Nutrient mixture F12 Ham supplemented with 20 μg/mL of insulin, and 2 μM of the NMDA receptor blocker MK-801 (DF12i).
Precisely, after 4 days of exposure to DF12i, between 10-15% of surviving neurons show a very strong AT8 immunosignal in their somas while only 1 to 1.5% of neuronal cell bodies are found immunopositive under conditions where oxidative stress is repressed by treatment with bovine apotransferrin (APO; 100 µg/mL, Sigma Aldrich), a glycoprotein with iron chelating properties. Likewise, overexpression of p-tau in cortical cell bodies is reduced by the two non-antibiotic tetracyclines compound of formula (C) ([…]) and compound of formula (Ib) ([…]): see the following Table: […]

bacteria = experiment: Antimicrobial effect against bacteria (Example 13, no method given); format: cell-based

SMILES	MIC (E. coli ATCC 28922) [µM]	MIC (E. faecalis ATCC 29212) [µM]	MIC (P. aeruginosa PA01) [µM]	MIC (S. aureus ATCC 25923) [µM]	antimicrobial effects against the 4 test bacterial strains (4 test bacterial strains)	neuroprotective effect (survival of dopamine neurons) (dopamine neurons)	reduction of proinflammatory effects of LPS (TNF-a release) ([1]; between 5 μM to 50 μM, LPS 10 ng/ml, 24 hours)	overexpression of p-tau in cortical cell bodies [2]	Reduction of the % of p-tau+ somas ([2]; compounds 3 μM, APO 100 μg/mL, mouse cortical cultures exposed div 7-11 to DF12i)	anti-inflammatory effects vis-à-vis 10 ng/mL LPS ([1]; 5 μM, 25 μM and 50 μM)	antimicrobial effect against bacteria (bacteria)
C[C@@]1(O)c2cccc(O)c2C(=O)C2=C(O)C3C(=O)C(C(N)=O)=C(O)C[C@@H]3[C@@H](O)[C@@H]21 (stereo partly drawn) [Compound of formula (Ib), (4aS,5R,5aR,6S)-3,5,6,10,12-pentahydroxy-6-methyl-1,11-dioxo-1,4,4a,5,5a,6,11,12a-octahydrotetracene-2-carboxamide]	> 200	100	> 200	100	effective against none of them	highly protective	reduces significantly	reduced	+++		
C[C@@]1(O)c2cccc(O)c2C(=O)C2=C(O)C3C(=O)C(C(N)=O)=C(O)CC3CC21 (some centres unmarked) [Compound of formula (Ic)]						highly protective				has anti-inflammatory effects	does not show any antimicrobial effect
CN(C)[C@@H]1C(O)=C(C(N)=O)C(=O)[C@@]2(O)C(O)=C3C(=O)c4c(O)cccc4[C@@](C)(O)[C@H]3[C@H](O)[C@@H]12 [Oxytetracycline]	3.12 (≈ 1.44 µg/mL)	3.12 (≈ 1.44 µg/mL)	50 (≈ 23 µg/mL)	3.12 (≈ 1.44 µg/mL)	exerts antimicrobial effects against 3 of the 4 test bacterial strains						
